Reference: ChEMBL document CHEMBL1201862, “PubChem BioAssay data set” (2004)
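A five-concentration, 48-hour dose response in 96-well plates underlies each endpoint, interpolated linearly between surrounding concentrations. The concentration for 50% growth inhibition is given as GI50.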 Active and inactive are the calls of the source. Rule as the data show it: active = GI50 up to about 1.1 µM and inactive = higher.

Tests used:
Test in all cases: NCI anticancer screen, dose series, 48 h
[1] = system: MCF7
[2] = system: MDA-MB-435
[3] = system: NCI-H23
[4] = system: MDA-N
[5] = system: Hs-578T
[6] = system: T47D
[7] = system: TK-10
[8] = system: HOP-62
[9] = system: SK-MEL-28
[10] = system: M14
[11] = system: HT-29
[12] = system: NCI-H522
[13] = system: CAKI-1
[14] = system: RXF 393
[15] = system: NCI/ADR-RES
[16] = system: SN12C

Measured: GI50

O=C1Nc2ccccc2C1Cc1ccccc1 (configuration not stated)
inactive: [1] > 100 µM | [2] > 100 µM | [3] > 100 µM | [4] > 100 µM | [5] > 100 µM | [6] 88.7 µM | [7] > 100 µM | [8] > 100 µM | [9] > 100 µM | [10] > 100 µM | [11] > 100 µM | [12] > 100 µM | [13] > 100 µM

CN(C)CCCNC(=O)c1cc(NC(=O)CCCn2c3ccccc3c3ccccc32)cn1C
inactive: [1] 35.5 µM | [2] 24.3 µM | [3] 31.8 µM | [4] 35.1 µM | [6] 19.1 µM | [7] 22.5 µM | [8] > 100 µM | [9] 49.7 µM | [14] 32.8 µM | [15] > 100 µM | [10] 28.1 µM | [11] 47.6 µM | [16] 48.5 µM | [13] 21.8 µM

COc1ccc2oc(=O)c(-c3csc(C)n3)cc2c1
inactive: [1] > 100 µM | [2] > 100 µM | [5] 30.7 µM | [7] 26 µM | [8] 31 µM | [9] > 100 µM | [14] 30.5 µM | [10] 75.2 µM | [11] > 100 µM | [16] > 100 µM | [13] > 100 µM

Cc1cn(C2CC(N)C(C(=O)O)O2)c(=O)[nH]c1=O (configuration not stated)
inactive: [1] > 100 µM | [2] > 100 µM | [3] > 100 µM | [4] > 100 µM | [5] > 100 µM | [7] > 100 µM | [8] > 100 µM | [15] > 100 µM | [10] > 100 µM | [11] > 100 µM | [16] > 100 µM | [12] > 100 µM | [13] > 100 µM

CCN(CC)CCNc1c(OC)cc(C)c2sc3ccccc3c(=O)c12
inactive: [1] 4.44 µM | [2] 3.08 µM | [3] 14.5 µM | [5] 7.5 µM | [6] 11.4 µM | [7] 8.59 µM | [8] 10.8 µM | [9] 1.92 µM | [14] 10.1 µM | [15] 5.27 µM | [10] 3.71 µM | [11] 2.61 µM | [16] 2.79 µM | [12] 5.33 µM | [13] 7.96 µM

CC(Cc1ccccc1)N(C)Cc1nc(C2CCC([N+](=O)[O-])O2)no1 (configuration not stated)
inactive: [1] 4.06 µM | [2] 6.82 µM | [3] 5.18 µM | [5] 2.46 µM | [6] 19.1 µM | [7] 13.5 µM | [8] 7.43 µM | [9] 11.9 µM | [14] 19 µM | [15] 11.9 µM | [10] 6 µM | [11] 2.77 µM | [16] 2.51 µM

CCOC(=O)CNc1nc(=O)c2c(=O)oc(Cl)cc2o1
inactive: [2] 15.7 µM | [3] 19.1 µM | [4] 14.2 µM | [5] 19.3 µM | [6] 18.9 µM | [7] 13.6 µM | [8] 25.4 µM | [9] 22.9 µM | [15] 21.4 µM | [10] 17.9 µM | [11] 10.7 µM | [16] 18.4 µM | [12] 2.7 µM | [13] 12.9 µM

CCOc1ccc2ccccc2c1NC1=NCCO1
inactive: [1] 37.8 µM | [2] 25.8 µM | [3] 28.8 µM | [5] 23.1 µM | [6] 29.7 µM | [7] > 100 µM | [8] 28.2 µM | [9] > 100 µM | [14] 98.6 µM | [15] 70.3 µM | [10] 37.2 µM | [11] 30.3 µM | [16] > 100 µM

CO[C@]12C[C@@H](CNC(=O)c3cc(Br)c[nH]3)O[C@H]1NC(=O)N2
inactive: [1] > 100 µM | [2] > 100 µM | [3] > 100 µM | [5] > 100 µM | [6] > 100 µM | [7] > 100 µM | [8] > 100 µM | [9] > 100 µM | [15] > 100 µM | [10] > 100 µM | [11] > 100 µM | [16] > 100 µM | [12] > 100 µM | [13] > 100 µM

CCN(CC)c1c(C(C)(C)C)c(=O)n2ccsc2c1OC(C)=O
inactive: [1] 15.6 µM | [2] 18 µM | [3] 16.1 µM | [4] 18.6 µM | [5] 22.9 µM | [7] 19.8 µM | [8] 13.3 µM | [9] 17.1 µM | [14] 16.9 µM | [15] 13 µM | [10] 17.3 µM | [11] 14.8 µM | [16] 18.2 µM | [12] 13.4 µM | [13] 18.6 µM

Cc1ccc(Nc2nc(N)nc3c2ncn3C2OC(CO)C(O)C2O)cc1 (configuration not stated)
inactive: [1] > 100 µM | [2] > 100 µM | [3] > 100 µM | [4] > 100 µM | [6] > 100 µM | [7] > 100 µM | [8] > 100 µM | [9] > 100 µM | [14] > 100 µM | [15] > 100 µM | [10] > 100 µM | [11] > 100 µM | [16] > 100 µM | [12] > 100 µM | [13] > 100 µM

O=c1c2ccc(Cl)cc2oc2c(CNc3ccc(S(=O)(=O)Nc4nccs4)cc3)cccc12
active: [13] 0.951 µM
inactive: [1] > 100 µM | [2] > 100 µM | [3] > 100 µM | [4] > 100 µM | [6] > 100 µM | [7] > 100 µM | [8] > 100 µM | [9] > 100 µM | [14] > 100 µM | [15] > 100 µM | [10] > 100 µM | [11] > 100 µM | [16] > 100 µM | [12] > 100 µM

COc1nc(N)nc2c1ncn2C1CC(O)C(CO)O1 (configuration not stated)
inactive: [1] > 100 µM | [2] > 100 µM | [3] > 100 µM | [5] > 100 µM | [6] > 100 µM | [7] > 100 µM | [8] > 100 µM | [9] > 100 µM | [14] > 100 µM | [15] > 100 µM | [10] > 100 µM | [11] > 100 µM | [16] > 100 µM | [12] > 100 µM | [13] > 100 µM

N=C(N)c1ccc(/N=N/c2c(O)ccc3cc(O)ccc23)cc1
inactive: [1] > 100 µM | [2] > 100 µM | [5] > 100 µM | [7] > 100 µM | [8] > 100 µM | [9] > 100 µM | [14] > 100 µM | [15] > 100 µM | [10] > 100 µM | [11] > 100 µM | [12] > 100 µM | [13] > 100 µM
